What follows are compounds tested against T1, MAT2A (Homo sapiens, UniProt P31153) (assay: MAT2A biochemical assay (colorimetric inorganic phosphate detection, PiColorLock)). Settings: recombinant His6-tagged MAT2A 1 μg/ml; 60 minutes preincubation at 25° C.; L-Met 80 μM, ATP 100 μM; 60 minutes reaction; read at 623 nm; read-out: MAT2A Inhibition Score.
T1 construct: His6; made in house; host or cells: SF9 insect cells
Method in brief: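 Colorimetric malachite green readout of phosphate released when MAT2A turns over L-Met and ATP, after 60 min at room temperature. Enzyme: SF9-expressed His6-tagged MAT2A at 1 μg/ml. Buffer: Tris pH 8.0, 50 mM KCl, 15 mM MgCl2, 300 uM EDTA, 0.005% BSA. Compounds tested as ten-point three-fold dilutions.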

T1 sequence (P31153 whole entry): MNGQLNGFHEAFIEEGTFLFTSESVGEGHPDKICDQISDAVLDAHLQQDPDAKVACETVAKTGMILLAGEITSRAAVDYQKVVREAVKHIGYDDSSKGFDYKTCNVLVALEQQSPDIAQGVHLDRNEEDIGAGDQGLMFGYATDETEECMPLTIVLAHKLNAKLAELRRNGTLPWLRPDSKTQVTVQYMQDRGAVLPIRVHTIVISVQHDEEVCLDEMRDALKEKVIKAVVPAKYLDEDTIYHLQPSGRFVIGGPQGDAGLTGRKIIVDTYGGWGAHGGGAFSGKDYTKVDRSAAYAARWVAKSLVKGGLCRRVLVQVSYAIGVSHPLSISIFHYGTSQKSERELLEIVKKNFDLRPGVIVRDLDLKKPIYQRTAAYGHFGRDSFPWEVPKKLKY

IC50 [nM]	Compound
< 100	COc1ccc(-c2c(Nc3ccc([N+](=O)[O-])cn3)[nH]c3c(-c4ccccc4)c(-c4ccccc4)nn3c2=O)cc1 [Compound 107, 6-(4-methoxyphenyl)-5-((5-nitropyridin-2-yl)amino)-2,3-diphenylpyrazolo[1,5-a]pyrimidin-7(4H)-one]
< 100	O=c1c(-c2ccc3nccnc3c2)c(CO)[nH]c2c(C3=CCCCC3)c(-c3ccccc3)nn12 [Compound 231, 3-(cyclohex-1-en-1-yl)-5-(hydroxymethyl)-2-phenyl-6-(quinoxalin-6-yl)pyrazolo[1,5-a]pyrimidin-7(4H)-one]
< 100	COc1ccc(-c2c(Nc3ccc(C#N)cn3)[nH]c3c(-c4ccccc4)c(-c4ccccc4)nn3c2=O)cc1 [Compound 104, 6-((6-(4-methoxyphenyl)-7-oxo-2,3-diphenyl-4,7-dihydropyrazolo[1,5-a]pyrimidin-5-yl)amino)nicotinonitrile]
< 100	COc1ccc(-c2c(C)[nH]c3c(-c4cc[nH]c4)c(-c4ccccc4)nn3c2=O)cc1 [Compound 220, 6-(4-methoxyphenyl)-5-methyl-2-phenyl-3-(1H-pyrrol-3-yl)pyrazolo[1,5-a]pyrimidin-7(4H)-one]
< 100	COc1ccc(-c2c(Nc3cnoc3)[nH]c3c(-c4ccccc4)c(-c4ccccc4)nn3c2=O)cc1 [Compound 139, 5-(isoxazol-4-ylamino)-6-(4-methoxyphenyl)-2,3-diphenylpyrazolo[1,5-a]pyrimidin-7(4H)-one]
< 100	COc1ccc(-c2c(O)[nH]c3c(C4=CCCCC4)c(-c4ccccc4)nn3c2=O)cc1 [Compound 279, 3-(cyclohex-1-en-1-yl)-5-hydroxy-6-(4-methoxyphenyl)-2-phenylpyrazolo[1,5-a]pyrimidin-7(4H)-one]
< 100	COc1ccc(-c2c(Nc3ccn[nH]3)[nH]c3c(C4=CCCCC4)c(-c4ccccc4)nn3c2=O)cc1 [Compound 189, 5-((1H-pyrazol-5-yl)amino)-3-(cyclohex-1-en-1-yl)-6-(4-methoxyphenyl)-2-phenyl pyrazolo[1,5-a]pyrimidin-7(4H)-one]
< 100	COc1ccc(-c2c(Nc3nccs3)[nH]c3c(-c4ccccc4)c(-c4ccccc4)nn3c2=O)cc1 [Compound 137, 6-(4-methoxyphenyl)-2,3-diphenyl-5-(thiazol-2-ylamino)pyrazolo[1,5-a]pyrimidin-7(4H)-one]
< 100	COc1ccc(-c2c(Nc3ccccn3)[nH]c3c(-c4ccccc4)c(-c4ccccc4)nn3c2=O)cc1 [Compound 102, 6-(4-methoxyphenyl)-2,3-diphenyl-5-(pyridin-2-ylamino)pyrazolo[1,5-a]pyrimidin-7(4H)-one]
< 100	COc1ccc(-c2c(Nc3nncs3)[nH]c3c(C4=CCCCC4)c(-c4ccccc4)nn3c2=O)cc1 [Compound 167, 5-((1,3,4-thiadiazol-2-yl)amino)-3-(cyclohex-1-en-1-yl)-6-(4-methoxyphenyl)-2-phenylpyrazolo[1,5-a]pyrimidin-7(4H)-one]
< 100	NCc1[nH]c2c(C3=CCCCC3)c(-c3ccccc3)nn2c(=O)c1-c1ccc2ncccc2c1 [Compound 233, 5-(aminomethyl)-3-(cyclohex-1-en-1-yl)-2-phenyl-6-(quinolin-6-yl)pyrazolo[1,5-a]pyrimidin-7(4H)-one]
< 100	COc1ccc(-c2c(Nc3c[nH]cn3)[nH]c3c(-c4ccccc4)c(-c4ccccc4)nn3c2=O)cc1 [Compound 184, 5-((1H-imidazol-4-yl)amino)-6-(4-methoxyphenyl)-2,3-diphenylpyrazolo[1,5-a]pyrimidin-7(4H)-one]
< 100	COc1ccc(-c2c(Nc3nc(OC)ns3)[nH]c3c(-c4ccccc4)c(-c4ccccc4)nn3c2=O)cc1 [Compound 148, 5-((3-methoxy-1,2,4-thiadiazol-5-yl)amino)-6-(4-methoxyphenyl)-2,3-diphenylpyrazolo[1,5-a]pyrimidin-7(4H)-one]
< 100	COc1ccc(-c2c(Nc3cccc(C(N)=O)n3)[nH]c3c(-c4ccccc4)c(-c4ccccc4)nn3c2=O)cc1 [Compound 112, 6-((6-(4-methoxyphenyl)-7-oxo-2,3-diphenyl-4,7-dihydropyrazolo[1,5-a]pyrimidin-5-yl)amino)picolinamide]
< 100	COc1ccc(-c2c(Nc3nonc3N)[nH]c3c(-c4ccccc4)c(-c4ccccc4)nn3c2=O)cc1 [Compound 149, 5-((4-amino-1,2,5-oxadiazol-3-yl)amino)-6-(4-methoxyphenyl)-2,3-diphenylpyrazolo[1,5-a]pyrimidin-7(4H)-one]
100 to 1000	COc1ccc(-c2c(C(N)=O)[nH]c3c(-c4ccccc4)c(-c4ccccc4)nn3c2=O)cc1 [Compound 315, 6-(4-methoxyphenyl)-7-oxo-2,3-diphenyl-4,7-dihydropyrazolo[1,5-a]pyrimidine-5-carboxamide]
< 100	O=c1c(-c2ccc3ncccc3c2)c(Nc2ccn[nH]2)[nH]c2c(C3=CCCCC3)c(-c3ccccc3)nn12 [Compound 190, 5-((1H-pyrazol-5-yl)amino)-3-(cyclohex-1-en-1-yl)-2-phenyl-6-(quinolin-6-yl)pyrazolo[1,5-a]pyrimidin-7(4H)-one]
< 100	COc1ccc(-c2c(Nc3cnc(C#N)cn3)[nH]c3c(-c4ccccc4)c(-c4ccccc4)nn3c2=O)cc1 [Compound 129, 5-(6-(4-methoxyphenyl)-7-oxo-2,3-diphenyl-4,7-dihydropyrazolo[1,5-a]pyrimidin-5-ylamino)pyrazine-2-carbonitrile]
< 100	COc1ccc(-c2c(Nc3ccon3)[nH]c3c(-c4ccccc4)c(-c4ccccc4)nn3c2=O)cc1 [Compound 138, 5-(isoxazol-3-ylamino)-6-(4-methoxyphenyl)-2,3-diphenylpyrazolo[1,5-a]pyrimidin-7(4H)-one]
< 100	NCc1[nH]c2c(C3=CCCCC3)c(-c3ccccc3)nn2c(=O)c1-c1ccc2nccnc2c1 [Compound 234, 5-(aminomethyl)-3-(cyclohex-1-en-1-yl)-2-phenyl-6-(quinoxalin-6-yl)pyrazolo[1,5-a]pyrimidin-7(4H)-one]

Further lines, the compound ahead of its results:

Compound	IC50 [nM]
COc1ccc(-c2c(CO)n(C)c3c(-c4ccccc4)c(-c4ccccc4)nn3c2=O)cc1 [Compound 249, 5-(hydroxymethyl)-6-(4-methoxyphenyl)-4-methyl-2,3-diphenylpyrazolo[1,5-a]pyrimidin-7(4H)-one]	< 100
Cc1[nH]c2c(-c3ccccc3)c(-c3ccccc3)nn2c(=O)c1-c1ccc(O)c(OCCN(C)C)c1 [Compound 292, 6-(3-(2-(dimethylamino)ethoxy)-4-hydroxyphenyl)-5-methyl-2,3-diphenylpyrazolo[1,5-a]pyrimidin-7(4H)-one]	< 100
CCOc1ccc(-c2c(C)[nH]c3c(-c4ccccc4)c(-c4ccccc4)nn3c2=O)cc1 [Compound 210, 6-(4-ethoxyphenyl)-5-methyl-2,3-diphenylpyrazolo[1,5-a]pyrimidin-7(4H)-one]	< 100
Cc1[nH]c2c(-c3ccccc3)c(-c3ccccc3)nn2c(=O)c1-c1ccc(O)c(F)c1 [Compound 238, 6-(3-fluoro-4-hydroxyphenyl)-5-methyl-2,3-diphenylpyrazolo[1,5-a]pyrimidin-7(4H)-one]	< 100
COc1ccc(-c2c(Oc3cccnn3)[nH]c3c(-c4ccccc4)c(-c4ccccc4)nn3c2=O)cc1 [Compound 354, 6-(4-methoxyphenyl)-2,3-diphenyl-5-(pyridazin-3-yloxy)pyrazolo[1,5-a]pyrimidin-7(4H)-one]	1000 to 10000
O=c1c(-c2ccc3ncccc3c2)cn(CCn2cnnn2)c2c(-c3ccccc3)c(-c3ccccc3)nn12 [Compound 352, 4-(2-(1H-tetrazol-1-yl)ethyl)-2,3-diphenyl-6-(quinolin-6-yl)pyrazolo[1,5-a]pyrimidin-7(4H)-one]	1000 to 10000
Cc1[nH]c2c(-c3ccccc3)c(-c3ccccc3F)nn2c(=O)c1-c1ccc2ncccc2c1 [Compound 205, 2-(2-fluorophenyl)-5-methyl-3-phenyl-6-(quinolin-6-yl)pyrazolo[1,5-a]pyrimidin-7(4H)-one]	< 100
Cc1[nH]c2c(C3=CCCCC3)c(-c3ccccc3)nn2c(=O)c1-c1ccc(OP(=O)(O)O)cc1 [Compound 295, 4-(3-(cyclohex-1-en-1-yl)-5-methyl-7-oxo-2-phenyl-4,7-dihydropyrazolo[1,5-a]pyrimidin-6-yl)phenyl dihydrogen phosphate]	< 100
Cc1[nH]c2c(N3CCCCC3)c(-c3ccccc3)nn2c(=O)c1-c1cccc(N)c1 [Compound 301, 6-(3-aminophenyl)-5-methyl-2-phenyl-3-(piperidin-1-yl)pyrazolo[1,5-a]pyrimidin-7(4H)-one]	100 to 1000
NCc1[nH]c2c(-c3ccccc3)c(-c3ccccc3)nn2c(=O)c1-c1ccc(O)cc1 [Compound 236, 5-(aminomethyl)-6-(4-hydroxyphenyl)-2,3-diphenylpyrazolo[1,5-a]pyrimidin-7(4H)-one]	< 100
Cc1[nH]c2c(N3CCC(F)(F)CC3)c(-c3ccccc3)nn2c(=O)c1-c1ccc2ncccc2c1 [Compound 207, 3-(4,4-difluoropiperidin-1-yl)-5-methyl-2-phenyl-6-(quinolin-6-yl)pyrazolo[1,5-a]pyrimidin-7(4H)-one]	< 100
Cc1[nH]c2c(-c3ccccc3)c(-c3ccccc3)nn2c(=O)c1-c1ccc2occc2c1 [Compound 334, 6-(benzofuran-5-yl)-5-methyl-2,3-diphenylpyrazolo[1,5-a]pyrimidin-7(4H)-one]	100 to 1000
Cc1[nH]c2c(-c3ccccc3)c(-c3ccccc3)nn2c(=O)c1-c1ccc2nc(CN)sc2c1 [Compound 253, 6-(2-(aminomethyl)benzo[d]thiazol-6-yl)-5-methyl-2,3-diphenylpyrazolo[1,5-a]pyrimidin-7(4H)-one]	< 100
Cc1[nH]c2c(-c3ccccc3)c(-c3ccc([N+](=O)[O-])cc3)nn2c(=O)c1-c1ccc2ncccc2c1 [Compound 251, 5-methyl-2-(4-nitrophenyl)-3-phenyl-6-(quinolin-6-yl)pyrazolo[1,5-a]pyrimidin-7(4H)-one]	1000 to 10000

Reference: patent US10800782B2, “Inhibitors of cellular metabolic processes” (Agios Pharmaceuticals, Inc., priority 2016, dated 2020)
